These results are taken from PMC7221806, “PF74 and Its Novel Derivatives Stabilize Hexameric Lattice of HIV-1 Mature-Like Particles” (Molecules, 2020).

Series [1] addresses T1, HIV-1 CANC (Human immunodeficiency virus type 1 group M subtype B, UniProt P12493). The series can be described thus: Disassembly inhibitor test for HIV (DITH), stability of preassembled CANC particles, with TEM. As to conditions: 10 µM; for TEM of CANC particles after incubation in disassembly buffer: after DITH, negative staining; for relative stability of HIV-1 CANC assemblies in disassembly buffer: CANC without inhibitor in disassembly buffer = 0%.

Series [2] relates to HIV-1. Description: microbe, parasite or virus in culture. In kind it is cell-based. The settings on record: for IC50: Human immunodeficiency virus 1, HEK293, 48 h.
Series [3] relates to HIV-1. Type of series: cell-based. The settings on record: OMK cells, 10 µM, 2.5 µM CsA.
A short description of series [4]: Cytotoxicity, resazurin assay. Type of series: cell-based. The settings on record: human, HEK 293T cells, 24 h treatment.
Series [5] deals with T1, HIV-1 CANC. Description: Fast Assembly Inhibitor Test for HIV (FAITH), in vitro assembly of mature-like particles, with TEM. As to conditions: 10 µM; for TEM phenotype of CANC assembled in presence of inhibitor: after FAITH, negative staining.
Series [6] is described as follows: Cytotoxic effect on OMK cells. Type of series: cell-based. The settings on record: owl monkey, OMK (owl monkey kidney) cells.

Molecules are shown by their SMILES. Some results are limits rather than exact numbers.

`CN(C(=O)[C@H](Cc1ccccc1)NC(=O)Cc1c[nH]c2ccccc12)c1ccccc1` [D1, (S)-2-(2-(1H-indol-3-yl)acetamido)-N-methyl-N,3-diphenylpropanamide]: in series [1], the “stabilization of HIV-1 CANC compared with PF74 (in words)” value was “only slightly less active in stabilization than PF74”. In series [2], the “inhibitory activity against HIV-1 compared with PF74 (in words)” value is “only slightly weaker than that of PF74” and it took 3.5 ± 0.6 µM to reach half-maximal inhibition (IC50). Moreover, in series [3], the “effect on HIV-1 infectivity / uncoating in CsA-washout assay (in words)” value (“effect on HIV-1 infectivity / uncoating” below) is “strongest impact on HIV-1 infectivity in OMK cells at the early stage of HIV-1 infection”. In series [4], the CC50 at 24 h was greater than 40 µM.
`COc1ccc2c(c1)c(CC(=O)N[C@@H](Cc1ccccc1)C(=O)N(C)c1ccccc1)c(C)n2C(=O)c1ccc(Cl)cc1` [D2, (S)-2-(2-(1-(4-chlorobenzoyl)-5-methoxy-2-methyl-1H-indol-3-yl)acetamido)-N-methyl--N,3-diphenylpropanamide]: in series [1], the “stabilization of HIV-1 CANC compared with PF74 (in words)” value is on record as “lower effect on HIV-1 CANC stability than PF74” and the “TEM of CANC particles after incubation in disassembly buffer” value (from here on “TEM of CANC particles after incubation”) is on record as “mainly disassembled material”. Moreover, half-maximal inhibition in series [2] (IC50) required 8 ± 1.2 µM. Further, the CC50 at 24 h in series [4] is greater than 40 µM.
For `CC(C)Cc1ccc([C@@H](C)C(=O)N[C@@H](Cc2ccccc2)C(=O)N(C)c2ccccc2)cc1` [D4R, (S)-2-((R)-2-(4-isobutylphenyl)propanamido)-N-methyl-N,3-diphenylpropanamide], in series [1], the “stabilization of HIV-1 CANC compared with PF74 (in words)” value was “lower effect on HIV-1 CANC stability than PF74” and the “TEM of CANC particles after incubation” value is on record as “mainly disassembled material”. Also, the IC50 in series [2] was greater than 20 µM. For the same compound, it took 27 ± 3.5 µM to reach half-maximal cytotoxicity in series [4] (CC50 at 24 h).
With `CN(C(=O)[C@H](Cc1ccccc1)NC(=O)[C@@H]1Cc2ccccc2C(=O)N1)c1ccccc1` [D7, (S)-N-((S)-1-(methyl(phenyl)amino)-1-oxo-3-phenylpropan-2-yl)-1-oxo-1,2,3,4--tetrahydroisoquinoline-3-carboxamide], in series [1], the “stabilization of HIV-1 CANC compared with PF74 (in words)” value is “lower effect on HIV-1 CANC stability than PF74” and the “TEM of CANC particles after incubation” value is reported as “mainly disassembled material”. The compound further showed an IC50 in series [2] greater than 20 µM. Moreover, the “TEM phenotype of CANC assembled in presence of inhibitor” value (“TEM phenotype … of inhibitor” below) in series [5] is “long, tubular structures”. Also, in series [4], the CC50 at 24 h was greater than 40 µM.
Regarding `CN(C(=O)[C@H](Cc1ccccc1)NC(=O)[C@H]1Cc2ccccc2C(=O)N1C)c1ccccc1` [D8R, (R)-2-methyl-N-((S)-1-(methyl(phenyl)amino)-1-oxo-3-phenylpropan-2-yl)-1-oxo--1,2,3,4-tetrahydroisoquinoline-3-carboxamide], in series [1], the “stabilization of HIV-1 CANC compared with PF74 (in words)” value is reported as “lower effect on HIV-1 CANC stability than PF74” and the “TEM of CANC particles after incubation” value is given as “mainly disassembled material”. For the same compound, in series [2], the “inhibitory activity against HIV-1 compared with PF74 (in words)” value is recorded as “only slightly weaker than that of PF74” and 4.5 ± 1.5 µM corresponded to half-maximal inhibition (IC50). Moreover, the “effect on HIV-1 infectivity / uncoating” value in series [3] is on record as “major effect”. The CC50 at 24 h in series [4] was greater than 40 µM.
Take `CN(C(=O)[C@H](Cc1ccccc1)NC(=O)[C@@H]1Cc2ccccc2C(=O)N1C)c1ccccc1` [D8S, (S)-2-methyl-N-((S)-1-(methyl(phenyl)amino)-1-oxo-3-phenylpropan-2-yl)-1-oxo--1,2,3,4-tetrahydroisoquinoline-3-carboxamide]: in series [1], the “stabilization of HIV-1 CANC compared with PF74 (in words)” value was “lower effect on HIV-1 CANC stability than PF74” and the “TEM of CANC particles after incubation” value is “mainly disassembled material”. This compound also showed an IC50 in series [2] greater than 20 µM. This compound also had a CC50 at 24 h in series [4] greater than 40 µM.
Turning to `CN(C(=O)[C@H](Cc1ccccc1)NC(=O)Cc1n[nH]c2ccccc12)c1ccccc1` [D9, (S)-2-(2-(1H-indazol-3-yl)acetamido)-N-methyl-N,3-diphenylpropanamide], in series [1], the “stabilization of HIV-1 CANC compared with PF74 (in words)” value was “more potent stabilizers than PF74”, the “relative stability of HIV-1 CANC assemblies in disassembly buffer” value (“relative stability” below) is given as 80% and the “TEM of CANC particles after incubation” value is listed as “intact CANC particles”. Besides, in series [2], the “inhibitory activity against HIV-1 compared with PF74 (in words)” value is recorded as “only slightly weaker than that of PF74” and half-maximal inhibition (IC50) was put at 3.4 ± 0.9 µM. In series [3], the “effect on HIV-1 infectivity / uncoating” value is on record as “highly active during the first two hours post infection, then its activity dropped”. Moreover, the CC50 at 24 h in series [4] is greater than 40 µM.
Consider `CN(C(=O)[C@H](Cc1ccccc1)NC(=O)NCc1nc2ccccc2[nH]1)c1ccccc1` [D10, (S)-2-(3-((1H-benzo[d]imidazol-2-yl)methyl)ureido)-N-methyl-N,3-diphenylpropanamide], for which the CC50 in series [6] is less than 3 µM. Besides, in series [1], the “stabilization of HIV-1 CANC compared with PF74 (in words)” value is given as “more potent stabilizers than PF74”, the “relative stability” value amounted to 90% and the “TEM of CANC particles after incubation” value is reported as “intact CANC particles”. For the same compound, in series [2], the “inhibitory activity against HIV-1 compared with PF74 (in words)” value was “better inhibitory activity against HIV-1 than PF74” and the IC50 is 0.5 ± 0.3 µM. Further, in series [5], the “TEM phenotype … of inhibitor” value was “predominant formation of cone-like and shorter tubular structures”. Further, it took 10 ± 1.6 µM to reach half-maximal cytotoxicity in series [4] (CC50 at 24 h).
As to `Cc1[nH]c2ccccc2c1CC(=O)N[C@@H](Cc1ccccc1)C(=O)N(C)c1ccccc1` [PF74], in series [1], the “relative stability” value is given as “about 60%” and the “TEM of CANC particles after incubation” value is “intact CANC particles”. This compound also had an IC50 in series [2] of 1.75 ± 0.5 µM. The “effect on assembly of mature-like CANC particles (in words)” value in series [5] (CANC without inhibitor = 100%) is recorded as “no effect”. Besides, the “TEM phenotype … of inhibitor” value in series [5] was “predominant formation of cone-like and shorter tubular structures”. Further, the “effect on HIV-1 infectivity / uncoating” value in series [3] was “strongest impact on HIV-1 infectivity in OMK cells at the early stage of HIV-1 infection”. In addition, in series [4], the CC50 at 24 h is greater than 40 µM.
